Patent publication US9861679B2, “Method of treating cancer” (priority 2014, dated 2018)

Key:
[1] = tested on: MLL-ENL-luciferase leukemic cells; assay: Anti-tumour efficacy in mice bearing MLL-ENL-luciferase leukemia; format: in vivo, mouse; settings: mice bearing MLLENL-Luc, after one week of treatment; birinapant 5 mg/kg, LY2228820 10 mg/kg i.p. twice a week; FIG. 8A
Description: FIG. 8: Combination of birinapant with p38 inhibitor decreases AML tumor burden. Mice bearing MLLENL-luciferase (A and B) or MLL-AF9 (C) leukemic cells received i.p injections of birinapant (5 mg/kg), LY2228820 (10 mg/kg) or the combined drugs twice a week for 4 weeks. A. Representative data of in vivo imaging of leukaemia progression in mice bearing MLL-ENL-luciferase. B. Kaplan-Meier survival curve of mice bearing MLL-ENL-luciferase and treated or not with birinapant, LY222820 or combined therapy. C. Kaplan-Meier survival curve of mice bearing MLL-AF9 and treated or not with birinapant, LY222820 or combined therapy.
To assess the anti-tumour efficacy of SMAC mimetic plus p38 inhibitor C57BL6 Albinos mice were injected by intra-venous route with 5·10^5 MLLENLluc. Luciferase activity was measured at D4 and D8 after leukemic cells injection to ensure engraftment. Treatment started at D8. Mice were treated twice a week for 4 weeks with either vehicle (6% Captisol), 5 mg/kg of Birinapant, or 10 mg/kg of LY222820 or combination. Mice were monitored for leukemia progression once a week using the in vivo bioluminescent imaging. […]
To assess the therapeutic efficacy of the combination multiple primary MLL-ENL and MLL-AF9 leukemias were transplanted and the secondary recipient mice were treated with the different drugs. […] The engraftment and trafficking were evaluated by in vivo bioluminescent imaging. […]

[2] = tested on: human AML patient samples; assay: In vitro response of human AML patient samples to Birinapant; format: cell-based; settings: single agent
[3] = tested on: advanced solid tumours and lymphoma; settings: intravenous administration, Phase I, patients; cited from earlier work
[4] = tested on: Bone Marrow Derived Macrophages (BMDM); assay: TNFα production by ELISA in BMDM treated with SMAC mimetic ± p38 inhibitors (kinase inhibitors screen); format: cell-based, mouse; settings: 500 nM CompA, GT13072 or birinapant ± 1 μM LY2228820, FIG. 1B
Description: FIG. 1: p38 inhibitors increase TNFα production and cell death induced by SMAC mimetics. A. Bone Marrow Derived Macrophages (BMDM) were pretreated ±1 μM of the indicated p38 inhibitors for 30 min then treated with 500 nM of SMAC mimetic Compound A (CompA) for 24 h. TNFα production was measured by ELISA of supernatants. B. BMDM were pretreated 500 nM of SMAC mimetic Compound A, GT13072 or birinapant ±1 μM of LY2228820. TNFα production was measured by ELISA of supernatants. N=3 biological repeats and error bars are SEM. C. BMDM were pretreated±the indicated dose of MK2 inhibitor PF-3644022 and the p38 inhibitor LY2228820, VX-702, TAK-715 or VX-745 for 30 min then treated with 500 nM of SMAC mimetic Compound A. Cell viability was measured after 24 h of treatment using CellTiter-Glo® (CTG) reagent. N=3 biological repeats and error bars are SEM. BMDMs from C56/B16, p38α^LysMCre or Mk2^−/− were cultured for 6 days in DMEM+10% FBS (v/v)+20% L929 mouse fibroblasts (a source of macrophage colony stimulating factor), plated and assayed the following day. BMDMs cells were seeded and assayed in the presence of L929 conditioned medium. AML cells were cultured in IMDM+10% FBS (v/v)+2.5 ng/ml of IL-3. […] After treatment with SMAC mimetic with or without kinases inhibitors cell viability was measured by staining with propidium iodide (2 μg/mL) or by using CellTiter-Glo® (Promega). […]

[5] = tested on: Bone Marrow Derived Macrophages (BMDM); assay: BMDM cell viability (CellTiter-Glo) after SMAC mimetic Compound A ± p38 or MK2 inhibitor; format: cell-based, mouse; settings: inhibitor 30 min then 500 nM Compound A, 24 h, FIG. 1C
Description: FIG. 1: p38 inhibitors increase TNFα production and cell death induced by SMAC mimetics. A. Bone Marrow Derived Macrophages (BMDM) were pretreated ±1 μM of the indicated p38 inhibitors for 30 min then treated with 500 nM of SMAC mimetic Compound A (CompA) for 24 h. TNFα production was measured by ELISA of supernatants. B. BMDM were pretreated 500 nM of SMAC mimetic Compound A, GT13072 or birinapant ±1 μM of LY2228820. TNFα production was measured by ELISA of supernatants. N=3 biological repeats and error bars are SEM. C. BMDM were pretreated±the indicated dose of MK2 inhibitor PF-3644022 and the p38 inhibitor LY2228820, VX-702, TAK-715 or VX-745 for 30 min then treated with 500 nM of SMAC mimetic Compound A. Cell viability was measured after 24 h of treatment using CellTiter-Glo® (CTG) reagent. N=3 biological repeats and error bars are SEM.
BMDMs from C56/B16, p38α^LysMCre or Mk2^−/− were cultured for 6 days in DMEM+10% FBS (v/v)+20% L929 mouse fibroblasts (a source of macrophage colony stimulating factor), plated and assayed the following day. BMDMs cells were seeded and assayed in the presence of L929 conditioned medium. AML cells were cultured in IMDM+10% FBS (v/v)+2.5 ng/ml of IL-3. NCI-H929 cells were cultured in RPMI+10% FBS (v/v). Cell suspension from breast ER+ patient derived tumours was cultured in mammosphere media. After treatment with SMAC mimetic with or without kinases inhibitors cell viability was measured by staining with propidium iodide (2 μg/mL) or by using CellTiter-Glo® (Promega).

C57BL/6 mice = assay: Tolerability of SMAC mimetic plus p38 inhibitor in non tumour-bearing mice; format: in vivo; settings: LY2228820 15 mg/kg combined with GT13072 5 mg/kg; FIG. 7C
Description: FIG. 7: Mice tolerate administration of birinapant plus p38 inhibitor. A. Mononuclear cells isolated from healthy donor by Ficoll sedimentation were treated for 48 h with indicated drugs. CD34^+ cell death was measured by staining with PI and flow cytometry. For each donor sample, graphs show mean of at least n=2 technical replicates across n=2-5 independent experiments. B and C. C57BL/6 mice were intra-peritoneally injected with vehicle (captisol 6%) or birinapant (B) or GT13072 (C) or LY2228820 or combination of LY2228820 and SM at indicated concentration. Mice received 8 injections twice a week over 4 weeks. Mice were euthanised 2 weeks after the treatment stopped. Graphs show organs, body weights and blood cell populations with 6 mice/group (B), 4 mice/group (C). Error bars are SEM.
To assess the safety of SMAC mimetic plus p38 inhibitor C57BL6 mice were injected by intra-peritoneal route twice a week for 4 weeks with either vehicle (6% Captisol) or 15 mg/kg of LY222820 or 5 mg/kg birinapant±15 mg/kg LY2228820, or 10 mg/kg birinapant±15 mg/kg LY2228820. Another cohort received either vehicle or 5 mg/kg of GT13072, or 15 mg/kg of LY222820 or combination.
200 μL of blood was collected from the retro-orbital plexus into tubes containing potassium ethylenediaminetetraacetic acid (Sarstedt) and analyzed in an Advia 2120 automated hematologic analyzer (Bayer).

[6] = tested on: low- and intermediate-1-risk Myelodysplastic syndromes; settings: cited from earlier work
[7] = oral administration, Phase I/II, patients

CC[C@H](NC(=O)[C@H](C)NC)C(=O)N1C[C@@H](O)C[C@H]1Cc1c(-c2[nH]c3cc(F)ccc3c2C[C@@H]2C[C@H](O)CN2C(=O)[C@H](CC)NC(=O)[C@H](C)NC)[nH]c2cc(F)ccc12 [Birinapant]
response to treatment (bioluminescent imaging) [1]: did not | response to Birinapant treatment in vitro [2]: some human AML patient samples did not respond | anti-tumour activity [3]: evidence of anti-tumour activity | tolerability [3]: well tolerated with no dose-limiting toxicities

CC(C)(C)Cn1c(N)nc2ccc(-c3[nH]c(C(C)(C)C)nc3-c3ccc(F)cc3)nc21 [LY2228820]
TNF production of three different smac-mimetics [4]: increased TNF production | cell death induced by SMAC mimetics [5]: dramatically increased | effect on splenomegaly induced by GT13072 (C57BL/6 mice): did not even exacerbate

Cc1ccc(-c2ccc3c(ccc4sc5c(c43)NC[C@@H](C)NC5=O)n2)cn1 [PF-3644022]
cell death induced by SMAC mimetics [5]: dramatically increased

CCc1nc(-c2cccc(C)c2)c(-c2ccnc(NC(=O)c3ccccc3)c2)s1 [TAK-715]
cell death induced by SMAC mimetics [5]: dramatically increased

C[C@@H]1CN(Cc2ccc(F)cc2)[C@@H](C)CN1C(=O)c1cc2c(C(=O)C(=O)N(C)C)cn(C)c2cc1Cl [Talmapimod]
complete remission [6, 7]: only one patient achieved a complete remission | tolerability [6, 7]: well tolerated | duration of complete remission ([6]; the one patient with complete remission): more than 2 years

NC(=O)c1ccc(N(C(N)=O)c2c(F)cccc2F)nc1-c1ccc(F)cc1F [VX-702]
cell death induced by SMAC mimetics [5]: dramatically increased

O=c1ncn2nc(Sc3ccc(F)cc3F)ccc2c1-c1c(Cl)cccc1Cl [VX-745]
cell death induced by SMAC mimetics [5]: dramatically increased
